Measurements from patent US20140187784A1, “RADIOACTIVE QUINOLINONE DERIVATIVE AND PHARMACEUTICAL DRUG COMPRISING THE SAME” (Nihon Medi-Physics Co., Ltd., priority 2012, published 2014).
Where two headings read alike, the source gives them in different places.

What was measured:
[1] = target: T1, CYP11B2 (Homo sapiens, UniProt P19099); details: reported by Stefanie Hahner et al., J Clin Endocrinol Metab 2008; cited from earlier work
T1 sequence (P19099 25-503): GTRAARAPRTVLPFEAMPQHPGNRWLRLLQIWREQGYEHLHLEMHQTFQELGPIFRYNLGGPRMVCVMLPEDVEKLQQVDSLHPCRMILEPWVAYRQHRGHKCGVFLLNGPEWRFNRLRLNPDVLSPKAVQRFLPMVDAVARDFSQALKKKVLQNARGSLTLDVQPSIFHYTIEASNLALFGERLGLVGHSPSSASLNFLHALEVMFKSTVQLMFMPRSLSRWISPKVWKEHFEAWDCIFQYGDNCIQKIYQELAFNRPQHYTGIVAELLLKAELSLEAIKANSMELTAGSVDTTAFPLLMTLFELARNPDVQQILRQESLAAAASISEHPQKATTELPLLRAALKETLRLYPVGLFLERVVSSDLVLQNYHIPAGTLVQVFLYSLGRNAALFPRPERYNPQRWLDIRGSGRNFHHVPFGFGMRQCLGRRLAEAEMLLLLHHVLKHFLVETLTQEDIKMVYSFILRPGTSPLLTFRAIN

[2] = target: T1, CYP11B2; experiment: Inhibition of aldosterone production in V79-B2 cells expressing human CYP11B2 (ELISA); type: cell-based; design: expressed in transfected cells; host or cells: Chinese hamster lung-derived fibroblast V79 cells (V79-B2)
Description: (§1) Chinese hamster lung-derived fibroblast V79 cells (obtained from European Collection of Cell Cultures (ECACC) via DS Pharma Biomedical Co., Ltd.) were allowed to express human CYP11B2 and human CYP11B1 to prepare V79-B2 and V79-B1, respectively. V79-B2 or V79-B1 was inoculated to a microplate and cultured overnight. Then, corticosterone and 11-deoxycortisol were added at final concentrations of 100 nmol/L into the culture supernatants of V79-B2 and V79-B1, respectively. At the same time, iodometomidate (IMTO) or the unlabeled form of PAY15, PAY21, PAY27, or PAY54 synthesized in Example 2, 5, 8, or 12 was added at a final concentration of 10^−4 to 10^3 nmol/L into the culture supernatants. One hour later, the culture supernatant of V79-B1 was recovered, and the concentration of cortisol, which is a metabolite of CYP11B1, was measured by enzyme-linked immunosorbent assay (ELISA). Four hours later, the culture supernatant of V79-B2 was recovered, and the concentration of aldosterone, which is a metabolite of CYP11B2, was measured by ELISA. […] IC50 against cortisol production/IC50 against aldosterone production was calculated and used as a selectivity factor for CYP11B2.

[3] = target: T2, human CYP11B1 (Homo sapiens, UniProt P15538); experiment: Inhibition of cortisol production in V79-B1 cells expressing human CYP11B1 (ELISA); type: cell-based; details: 11-deoxycortisol 100 nmol/L, 1 hour, unlabeled form, read-out: IC50 against cortisol production
T2 construct: expressed in transfected cells; host or cells: Chinese hamster lung-derived fibroblast V79 cells (V79-B1)
T2 sequence (P15538 25-503): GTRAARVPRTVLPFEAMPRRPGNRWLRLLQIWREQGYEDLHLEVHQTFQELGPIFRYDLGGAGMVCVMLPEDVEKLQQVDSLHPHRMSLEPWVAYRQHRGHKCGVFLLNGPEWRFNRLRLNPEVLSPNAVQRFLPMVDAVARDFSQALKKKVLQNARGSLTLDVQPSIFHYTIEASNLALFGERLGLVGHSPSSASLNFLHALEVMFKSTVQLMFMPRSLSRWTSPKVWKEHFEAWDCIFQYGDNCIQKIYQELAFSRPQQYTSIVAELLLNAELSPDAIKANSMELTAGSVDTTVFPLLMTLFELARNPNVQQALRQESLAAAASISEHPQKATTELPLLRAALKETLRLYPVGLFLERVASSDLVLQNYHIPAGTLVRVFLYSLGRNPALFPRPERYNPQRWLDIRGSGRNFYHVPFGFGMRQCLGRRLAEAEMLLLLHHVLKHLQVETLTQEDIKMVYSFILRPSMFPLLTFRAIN
Description: as §1

[4] = Pharmacokinetic and distribution experiment (radioactivity in blood and excised organs after tail vein injection); type: in vivo; details: ddy mice; for Adrenal gland/Blood ratio / Adrenal gland/Kidney ratio / Adrenal gland/Liver ratio / Radioactivity Distribution, Adrenal gland / Radioactivity Distribution, Blood / Radioactivity Distribution, Heart / Radioactivity Distribution, Kidney / Radioactivity Distribution, Large intestine / Radioactivity Distribution, Liver / Radioactivity Distribution, Lung / Radioactivity Distribution, Pancreas / Radioactivity Distribution, Small intestine / Radioactivity Distribution, Spleen / Radioactivity Distribution, Stomach / Radioactivity Distribution, Thyroid: tail vein injection, 18.5 kBq (0.5 μCi)
Summary of the method: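 [^125I]PAY15 or PAY21 at 18.5 kBq (0.5 μCi), or [^18F]PAY27 or PAY54 at 14.8 kBq […], in saline given i.v. by tail vein to 6-week-old ddy mice (n=5). Blood and weighed organs (thyroid for 125I, thigh bone for 18F) counted for radioactivity at 5–120 min.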

[5] = Pharmacokinetic and distribution experiment using CD-1 (ICR) mice instead of ddy mice; type: in vivo; details: similar operation using CD-1 (ICR) mice instead of ddy mice
[6] = Stability evaluation in plasma (HPLC, RI detector); type: in vitro ADME; details: CD-1 mouse plasma, 37° C., incubation for 120 minutes
Description: The stability of [^125I]PAY21 in plasma was evaluated by the following procedures: Blood was collected from the heart of each CD-1 mouse. Plasma was separated by centrifugation and passed through Cosmonice filter (diameter: 4 mm, pore size: 0.45 μm, Nacalai Tesque, Inc.). 350 μL of the plasma thus filtered was incubated at 37° C. for 15 minutes. Then, 30 μL of a saline solution of [^125I]PAY21 (18.5 kBq (0.5 μCi)) was added thereto. After incubation for 120 minutes, a 100 μL aliquot of the mixture was separated and added to methanol (500 μL) under ice cooling. The mixture was further centrifuged, and the supernatant (400 μL) was analyzed by HPLC. The HPLC conditions were the same as those shown in Example 6.

SMILES: C[C@H](c1ccccc1)n1cncc1C(=O)OCCF [FETO, fluoroetomidate]
- Selectivity factor [1]: 0.145

SMILES: COC(=O)c1cncn1C(C)c1ccccc1 (stereo not shown) [MTO, metomidate]
- Selectivity factor [1]: 0.275
- selectivity for CYP11B1 versus CYP11B2 [1]: higher selectivity for steroid 11β-hydroxylase (CYP11B1) than that for aldosterone synthase (CYP11B2)

SMILES: COC(=O)c1cncn1[C@H](C)c1ccc(I)cc1 [IMTO, iodometomidate, reference compound]
- Selectivity factor ([2]; IC50 against cortisol production/IC50 against aldosterone production, selectivity factor for CYP11B2): 0.93
- IC50 ([2]; V79-B2 cells, corticosterone 100 nmol/L, 4 hours, unlabeled form, read-out: IC50 against aldosterone production): 140 pM
- IC50 [3]: 130 pM
- Selectivity factor [1]: 0.261

SMILES: O=C1CCc2cc(-c3cncc([125I])c3)cc3c2N1CC3 [[^125I]PAY21, 8-(5-[^125I]iodopyridin-3-yl)-1,2,5,6-tetrahydro-4H-pyrrolo[3,2,1-ij]quinolin-4-one]
- radioactivity accumulation in the adrenal gland compared with blood and periadrenal tissues ([4]; at an early stage after administration): high radioactivity accumulation
- Adrenal gland/Blood ratio ([4]; 5 min): 1.71 ± 0.08
- Adrenal gland/Kidney ratio ([4]; 5 min): 1.52 ± 0.19
- Adrenal gland/Liver ratio ([4]; 5 min): 1.13 ± 0.14
- Radioactivity Distribution, Adrenal gland ([4]; 5 min): 9.7 ± 1.4 % dose/g
- Radioactivity Distribution, Blood ([4]; 5 min): 5.7 ± 0.8 % dose/g
- Radioactivity Distribution, Heart ([4]; 5 min): 3.6 ± 0.4 % dose/g
- Radioactivity Distribution, Kidney ([4]; 5 min): 6.4 ± 0.4 % dose/g
- Radioactivity Distribution, Large intestine ([4]; 5 min): 2.3 ± 0.4 % dose/g
- Radioactivity Distribution, Liver ([4]; 5 min): 8.6 ± 1.1 % dose/g
- Radioactivity Distribution, Lung ([4]; 5 min): 5.6 ± 0.7 % dose/g
- Radioactivity Distribution, Pancreas ([4]; 5 min): 4.0 ± 0.5 % dose/g
- Radioactivity Distribution, Small intestine ([4]; 5 min): 6.0 ± 1.0 % dose/g
- Radioactivity Distribution, Spleen ([4]; 5 min): 3.9 ± 0.4 % dose/g
- Radioactivity Distribution, Stomach ([4]; 5 min): 10.1 ± 1.6 % dose/g
- Radioactivity Distribution, Thyroid ([4]; 5 min): 114.1 ± 22.4 % dose/g
- Adrenal gland/Blood ratio ([4]; 15 min): 0.75 ± 0.17
- Adrenal gland/Kidney ratio ([4]; 15 min): 0.90 ± 0.24
- Adrenal gland/Liver ratio ([4]; 15 min): 1.12 ± 0.36
- Radioactivity Distribution, Adrenal gland ([4]; 15 min): 3.6 ± 1.0 % dose/g
- Radioactivity Distribution, Blood ([4]; 15 min): 4.7 ± 0.4 % dose/g
- Radioactivity Distribution, Heart ([4]; 15 min): 2.1 ± 0.3 % dose/g
- Radioactivity Distribution, Kidney ([4]; 15 min): 4.0 ± 0.6 % dose/g
- Radioactivity Distribution, Large intestine ([4]; 15 min): 2.2 ± 0.1 % dose/g
- Radioactivity Distribution, Liver ([4]; 15 min): 3.2 ± 0.4 % dose/g
- Radioactivity Distribution, Lung ([4]; 15 min): 4.1 ± 0.3 % dose/g
- Radioactivity Distribution, Pancreas ([4]; 15 min): 2.6 ± 0.3 % dose/g
- Radioactivity Distribution, Small intestine ([4]; 15 min): 8.1 ± 2.2 % dose/g
- Radioactivity Distribution, Spleen ([4]; 15 min): 3.0 ± 0.4 % dose/g
- Radioactivity Distribution, Stomach ([4]; 15 min): 28.4 ± 3.3 % dose/g
- Radioactivity Distribution, Thyroid ([4]; 15 min): 332.2 ± 43.1 % dose/g
- Adrenal gland/Blood ratio ([4]; 30 min): 0.76 ± 0.14
- Adrenal gland/Kidney ratio ([4]; 30 min): 0.82 ± 0.10
- Adrenal gland/Liver ratio ([4]; 30 min): 1.26 ± 0.20
- Radioactivity Distribution, Adrenal gland ([4]; 30 min): 2.8 ± 0.3 % dose/g
- Radioactivity Distribution, Blood ([4]; 30 min): 3.7 ± 0.4 % dose/g
- Radioactivity Distribution, Heart ([4]; 30 min): 1.5 ± 0.1 % dose/g
- Radioactivity Distribution, Kidney ([4]; 30 min): 3.4 ± 0.4 % dose/g
- Radioactivity Distribution, Large intestine ([4]; 30 min): 2.1 ± 0.2 % dose/g
- Radioactivity Distribution, Liver ([4]; 30 min): 2.2 ± 0.2 % dose/g
- Radioactivity Distribution, Lung ([4]; 30 min): 3.4 ± 0.3 % dose/g
- Radioactivity Distribution, Pancreas ([4]; 30 min): 2.4 ± 0.5 % dose/g
- Radioactivity Distribution, Small intestine ([4]; 30 min): 10.3 ± 2.8 % dose/g
- Radioactivity Distribution, Spleen ([4]; 30 min): 2.5 ± 0.6 % dose/g
- Radioactivity Distribution, Stomach ([4]; 30 min): 40.7 ± 3.5 % dose/g
- Radioactivity Distribution, Thyroid ([4]; 30 min): 1570.0 ± 165.0 % dose/g
- Adrenal gland/Blood ratio ([4]; 60 min): 0.54 ± 0.17
- Adrenal gland/Kidney ratio ([4]; 60 min): 0.65 ± 0.21
- Adrenal gland/Liver ratio ([4]; 60 min): 1.15 ± 0.38
- Radioactivity Distribution, Adrenal gland ([4]; 60 min): 1.9 ± 0.8 % dose/g
- Radioactivity Distribution, Blood ([4]; 60 min): 3.4 ± 0.6 % dose/g
- Radioactivity Distribution, Heart ([4]; 60 min): 1.3 ± 0.2 % dose/g
- Radioactivity Distribution, Kidney ([4]; 60 min): 2.9 ± 0.6 % dose/g
- Radioactivity Distribution, Large intestine ([4]; 60 min): 2.0 ± 0.4 % dose/g
- Radioactivity Distribution, Liver ([4]; 60 min): 1.6 ± 0.3 % dose/g
- Radioactivity Distribution, Lung ([4]; 60 min): 3.1 ± 0.6 % dose/g
- Radioactivity Distribution, Pancreas ([4]; 60 min): 1.7 ± 0.3 % dose/g
- Radioactivity Distribution, Small intestine ([4]; 60 min): 10.9 ± 2.9 % dose/g
- Radioactivity Distribution, Spleen ([4]; 60 min): 1.9 ± 0.4 % dose/g
- Radioactivity Distribution, Stomach ([4]; 60 min): 39.4 ± 9.1 % dose/g
- Radioactivity Distribution, Thyroid ([4]; 60 min): 1318.7 ± 800.8 % dose/g
- Adrenal gland/Blood ratio ([4]; 120 min): 0.71 ± 0.32
- Adrenal gland/Kidney ratio ([4]; 120 min): 0.81 ± 0.44
- Adrenal gland/Liver ratio ([4]; 120 min): 1.33 ± 0.64
- Radioactivity Distribution, Adrenal gland ([4]; 120 min): 1.8 ± 0.7 % dose/g
- Radioactivity Distribution, Blood ([4]; 120 min): 2.6 ± 0.3 % dose/g
- Radioactivity Distribution, Heart ([4]; 120 min): 1.0 ± 0.2 % dose/g
- Radioactivity Distribution, Kidney ([4]; 120 min): 2.4 ± 0.6 % dose/g
- Radioactivity Distribution, Large intestine ([4]; 120 min): 10.0 ± 4.8 % dose/g
- Radioactivity Distribution, Liver ([4]; 120 min): 1.4 ± 0.2 % dose/g
- Radioactivity Distribution, Lung ([4]; 120 min): 2.6 ± 0.7 % dose/g
- Radioactivity Distribution, Pancreas ([4]; 120 min): 1.6 ± 0.1 % dose/g
- Radioactivity Distribution, Small intestine ([4]; 120 min): 4.8 ± 1.3 % dose/g
- Radioactivity Distribution, Spleen ([4]; 120 min): 1.7 ± 0.1 % dose/g
- Radioactivity Distribution, Stomach ([4]; 120 min): 38.6 ± 6.5 % dose/g
- Radioactivity Distribution, Thyroid ([4]; 120 min): 4664.0 ± 1419.1 % dose/g
- radioactivity distribution in CD-1 (ICR) mice compared with ddy mice [5]: no difference between the species
- peak area of intact compound after incubation in plasma [6]: approximately 60%
